The record followed here is article PMC8969509 (Journal of Antimicrobial Chemotherapy, 2022).

Molecules are shown by their SMILES. pIC50: −log10 of the molar value.

This experiment addresses T1, Mtb topoisomerase I (Mycobacterium tuberculosis, UniProt P9WG49).
T1 construct: gene topA
Description: biochemical.

T1 sequence (P9WG49 whole entry): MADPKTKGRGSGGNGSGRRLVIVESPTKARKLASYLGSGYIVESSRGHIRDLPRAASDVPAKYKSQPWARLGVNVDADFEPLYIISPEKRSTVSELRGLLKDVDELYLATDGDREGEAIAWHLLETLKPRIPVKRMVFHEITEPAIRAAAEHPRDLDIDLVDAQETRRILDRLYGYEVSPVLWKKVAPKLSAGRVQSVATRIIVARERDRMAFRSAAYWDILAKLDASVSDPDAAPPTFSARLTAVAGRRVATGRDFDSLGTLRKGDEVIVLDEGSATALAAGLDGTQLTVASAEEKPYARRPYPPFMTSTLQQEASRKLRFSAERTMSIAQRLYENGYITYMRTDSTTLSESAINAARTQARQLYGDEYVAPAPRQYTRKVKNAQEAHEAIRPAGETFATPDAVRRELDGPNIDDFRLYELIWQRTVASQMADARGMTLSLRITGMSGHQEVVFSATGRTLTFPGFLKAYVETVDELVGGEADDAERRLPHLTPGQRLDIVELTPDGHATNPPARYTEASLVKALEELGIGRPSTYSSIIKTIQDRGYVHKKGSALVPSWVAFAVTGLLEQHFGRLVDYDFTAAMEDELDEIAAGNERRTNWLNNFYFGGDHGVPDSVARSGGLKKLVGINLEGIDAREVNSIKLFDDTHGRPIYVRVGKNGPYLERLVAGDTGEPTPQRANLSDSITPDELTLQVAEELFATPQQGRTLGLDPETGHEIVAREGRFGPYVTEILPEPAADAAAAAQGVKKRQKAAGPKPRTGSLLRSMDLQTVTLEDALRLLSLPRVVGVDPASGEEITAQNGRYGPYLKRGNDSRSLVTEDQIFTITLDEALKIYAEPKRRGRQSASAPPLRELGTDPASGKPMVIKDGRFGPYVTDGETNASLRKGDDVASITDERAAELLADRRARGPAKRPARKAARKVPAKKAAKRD

For orientation: pIC50 means the IC50 on a negative log10 scale, so that one unit is a factor of ten. A higher pIC50 goes with a small IC50. The molecule `COc1cc(NS(C)(=O)=O)ccc1Nc1c2ccccc2nc2ccccc12` [mAMSA] showed a pIC50 of 4.76.
